Results taken from US7060671B1, “Peptides containing N-substituted D-amino acids for preventing β-strand association” (Senexis Limited, priority 1999, dated 2006).
“And” between values parts separate entries of the source, which are not always exact repeats. Identical values can stand only once. “Also recorded” adds a separate entry of the source. Square brackets hold non-standard residues; d marks the D form. Peptide text beside a SMILES is read from it. dNMeL = CN[C@H](CC(C)C)C(=O)O

Assays:
[1] = target: T1, synthetic peptide fragment corresponding to residues 11 to 25 of the Alzheimer's Aβ peptide (Homo sapiens, UniProt P05067); experiment: thioflavin T fluorescence assay of Aβ peptide fragment aggregation into amyloid fibrils; assay type: biochemical
T1 construct: residues 11 to 25 of the Alzheimer's Aβ peptide
Method: Peptide X (SEQ ID NO: 2) was dissolved in water to a concentration of 10 mM (about 10 mg/ml). […]

[2] = solubility in aqueous solutions; assay type: physicochemical; details: over a wide range of pH values
Excerpt: The two positively charged arginine side chains assist the peptide to penetrate cell membranes and the blood-brain barrier by making electrostatic interactions with the negatively charged phosphate head groups of their constituent phospholipid molecules, resulting in the formation of inverted micelles which carry the peptide molecules across these membranes.

[3] = target: T2, Alzheimer's Aβ peptide fragment (Homo sapiens, UniProt P05067); experiment: electron microscopy of Aβ peptide fragment aggregation; assay type: biochemical; details: 500 mM (so in the source) Peptide X, FIGS. 6 and 7
T2 construct: residues 11 to 25 of the Alzheimer's Aβ peptide
Method: Peptide X (SEQ ID NO: 2) was dissolved in water to a concentration of 10 mM (about 10 mg/ml). Alzheimer's Aβ peptide fragment, at a concentration of 50/M (about 0.1 mg/ml) in 50 mM sodium acetate buffer (pH 5.0), was incubated at 25° C. in the absence or presence of Peptide X (SEQ ID NO: 2) at concentrations ranging from 100 μM to 1 mM; the aggregation of the Aβ peptide fragment into insoluble β-fibres in the solutions was determined quantitatively after 20 minutes by measuring the fluorescence of 1%M added thioflavin T at 482 nm using an excitation wavelength of 440 nm. […] aliquots of these solutions were then analysed by electron microscopy to confirm that Peptide X (SEQ ID NO: 2) had inhibited and/or reversed the aggregation of the Alzheimer's Aβ peptide fragment into insoluble β-fibres.

In the case of CC(=O)N[C@H](CC(C)C)C(=O)N(C)[C@H](CC(C)C)C(=O)N[C@H](CC(C)C)C(=O)N(C)[C@H](CC(C)C)C(=O)N[C@H](CCCNC(=N)N)C(=O)N[C@H](CCCNC(=N)N)C(N)=O [Peptide X, Nα-acetyl-(D-leucine)-(Nα-methyl-D-leucine)-(D-leucine)-(Nα-methyl-D-leucine)-(D-arginine)-(D-arginine)-NH2] (Ac-[dL][dNMeL][dL][dNMeL][dR][dR]-NH2), the inhibition at 200 µM ([1]; 200 μM Peptide X, Aβ fragment in 50 mM sodium acetate pH 5.0, 25° C., 20 minutes, FIG. 5) is reported as greater than 60%, the “disaggregation of preformed amyloid fibrils” value ([1]; Peptide X added to the Aβ peptide fragment after incubation) is reported as “able to disaggregate preformed amyloid fibrils” and the “reduction in Alzheimer's Aβ peptide aggregation” value ([1]; Peptide X concentration of 100 mM (so in the source), FIG. 5) is reported as 50%. The solubility [2] was ≥ 10000 µM and ≥ 10000 µg/mL and the “inhibition of aggregation of Aβ peptide fragment into amyloid fibrils by electron microscopy” value [3] was “almost completely inhibited aggregation; also recorded: substantial elimination of aggregation”.
